Data reported in US8148391B2 (Cephalon, Inc., priority 2006, dated 2012).
Where two headings read alike, the source gives them in different places. Blank lines part the entries; values can stand above or below the molecule they belong to.

Tests used:
[1] = target: T1, baculovirus-expressed ALK (Homo sapiens, UniProt Q9UM73); assay: ALK Kinase Assay (ELISA-type, time-resolved fluorescence); type: biochemical
T1 construct: host or cells: baculovirus expression system
How it was run: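 Plates coated with phospholipase C-γ substrate (10 μg/mL in TBS); reaction started with 30 ng/ml ALK and run 15 min at 37° C. Phosphorylated substrate detected with Eu-N1-labeled PT66 antibody. IC50 from sigmoidal variable-slope fit of percent inhibition vs log concentration.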

[2] = target: T2, c-Met (cytoplasmic domain) (Homo sapiens, UniProt P08581); assay: c-Met Kinase Assay (same methods as for ALK, with modifications); type: biochemical
T2 construct: 10 ng/mL c-Met (cytoplasmic domain, Invitrogen Corporation #PV3143); purchased Invitrogen Corporation PV3143
How it was run: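 Plates were coated with phospholipase C-γ substrate (10 μg/mL) in TBS, and the reaction was started with 10 ng/mL c-Met cytoplasmic domain and run 15 min at 37 °C. Phosphoproduct was detected with Eu-N1-labelled PT66 antibody. IC50 came from a variable-slope sigmoidal fit of percent inhibition vs log concentration.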

[3] = ALK kinase inhibition, 1 μM ATP, read-out: ALK Activity
[4] = c-Met kinase inhibition, 1 μM ATP, read-out: cMet Activity
[5] = 1 μM ATP (Km level), read-out: ALK Activity (ALK Kinase Inhibition, IC50)
[6] = 1 μM ATP (Km level), read-out: cMet Activity (c-Met Kinase Inhibition, IC50)
[7] = 1 μM ATP (Km level), 30 ng/ml ALK, 37° C., 15 minutes, read-out: ALK Activity (ALK kinase inhibition, IC50 class)
[8] = 1 μM ATP (Km level), 10 ng/mL c-Met, read-out: cMet Activity (c-Met kinase inhibition, IC50 class)
[9] = ALK kinase inhibition, 1 μM ATP (Km level), read-out: ALK Activity
[10] = c-Met kinase inhibition, 1 μM ATP (Km level), read-out: cMet Activity

T1 sequence (Q9UM73 19-1620): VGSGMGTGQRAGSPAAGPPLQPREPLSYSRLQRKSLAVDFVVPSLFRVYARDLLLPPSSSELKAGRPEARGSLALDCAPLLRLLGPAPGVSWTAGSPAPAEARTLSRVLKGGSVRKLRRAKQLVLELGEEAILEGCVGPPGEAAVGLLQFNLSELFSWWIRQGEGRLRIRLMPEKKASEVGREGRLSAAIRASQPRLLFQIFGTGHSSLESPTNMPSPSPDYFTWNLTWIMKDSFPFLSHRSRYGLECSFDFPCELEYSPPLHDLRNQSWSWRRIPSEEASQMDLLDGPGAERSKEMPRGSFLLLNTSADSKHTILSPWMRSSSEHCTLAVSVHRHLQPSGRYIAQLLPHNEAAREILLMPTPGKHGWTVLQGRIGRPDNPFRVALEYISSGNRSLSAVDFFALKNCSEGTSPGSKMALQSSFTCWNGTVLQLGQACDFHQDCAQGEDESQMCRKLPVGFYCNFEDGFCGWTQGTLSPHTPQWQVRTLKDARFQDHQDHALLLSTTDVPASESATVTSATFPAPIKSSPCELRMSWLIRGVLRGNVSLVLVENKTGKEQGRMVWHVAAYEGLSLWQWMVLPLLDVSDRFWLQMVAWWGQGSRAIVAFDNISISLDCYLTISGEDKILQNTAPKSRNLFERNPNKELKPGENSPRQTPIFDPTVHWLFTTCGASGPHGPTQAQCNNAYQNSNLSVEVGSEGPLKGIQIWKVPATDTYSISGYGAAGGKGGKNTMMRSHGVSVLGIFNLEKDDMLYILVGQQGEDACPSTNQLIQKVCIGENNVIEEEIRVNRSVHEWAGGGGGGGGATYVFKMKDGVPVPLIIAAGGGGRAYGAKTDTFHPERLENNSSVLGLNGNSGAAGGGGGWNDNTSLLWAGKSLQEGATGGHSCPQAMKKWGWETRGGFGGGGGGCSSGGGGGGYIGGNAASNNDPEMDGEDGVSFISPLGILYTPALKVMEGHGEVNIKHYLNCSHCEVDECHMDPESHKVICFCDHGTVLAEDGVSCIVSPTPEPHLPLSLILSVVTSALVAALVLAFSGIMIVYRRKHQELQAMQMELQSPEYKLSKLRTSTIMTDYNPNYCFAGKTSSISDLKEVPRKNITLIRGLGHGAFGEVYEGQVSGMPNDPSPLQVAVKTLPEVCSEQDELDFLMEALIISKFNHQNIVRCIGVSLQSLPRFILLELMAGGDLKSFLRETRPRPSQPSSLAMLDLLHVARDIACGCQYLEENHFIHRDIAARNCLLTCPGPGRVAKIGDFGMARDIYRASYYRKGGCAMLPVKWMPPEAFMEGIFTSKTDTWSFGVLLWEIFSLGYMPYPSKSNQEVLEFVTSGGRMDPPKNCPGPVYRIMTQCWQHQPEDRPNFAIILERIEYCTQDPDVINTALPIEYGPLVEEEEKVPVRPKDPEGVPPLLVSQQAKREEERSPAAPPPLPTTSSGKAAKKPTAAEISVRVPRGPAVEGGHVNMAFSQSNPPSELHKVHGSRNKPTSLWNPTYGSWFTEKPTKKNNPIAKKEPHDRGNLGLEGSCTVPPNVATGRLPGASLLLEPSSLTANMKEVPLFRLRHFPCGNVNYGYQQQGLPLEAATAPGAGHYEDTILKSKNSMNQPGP
T2 sequence (P08581 956-1390 limits assumed): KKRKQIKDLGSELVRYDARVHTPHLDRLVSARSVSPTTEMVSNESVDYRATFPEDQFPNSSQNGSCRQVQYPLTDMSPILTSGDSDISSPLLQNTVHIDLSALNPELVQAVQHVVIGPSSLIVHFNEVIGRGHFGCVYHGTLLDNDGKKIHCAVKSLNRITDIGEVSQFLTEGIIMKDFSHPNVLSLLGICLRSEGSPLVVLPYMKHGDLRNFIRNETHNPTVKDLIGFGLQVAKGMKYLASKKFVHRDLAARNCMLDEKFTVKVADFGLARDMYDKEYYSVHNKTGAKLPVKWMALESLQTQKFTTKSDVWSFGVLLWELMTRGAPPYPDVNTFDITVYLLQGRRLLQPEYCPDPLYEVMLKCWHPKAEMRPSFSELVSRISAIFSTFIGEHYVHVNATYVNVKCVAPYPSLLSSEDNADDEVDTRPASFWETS

- IC50 [1, 5]: < 100 nM
- IC50 [2, 6]: > 10000 nM
Compound: COCCNC1CCc2cc(Nc3ncc(Cl)c(N[C@@H]4CCCC[C@H]4NS(C)(=O)=O)n3)c(OC)cc2CC1 (stereo partly drawn) [Example 895, N-((1R,2R)-2-{5-Chloro-2-[3-methoxy-7-(2-methoxy-ethylamino)-6,7,8,9-tetrahydro-5H-benzocyclohepten-2-ylamino]-pyrimidin-4-ylamino}-cyclohexyl)-methanesulfonamide]

- IC50 [1, 5]: 100 to 1000 nM
- IC50 [2, 6]: > 10000 nM
Compound: COc1ccccc1Nc1nc(Nc2ccc3c(c2)CCC(NCC(F)(F)F)CC3)ncc1Cl (stereo not drawn) [Example 658, 5-Chloro-N*4*-(2-methoxy-phenyl)-N*2*-[7-(2,2,2-trifluoro-ethylamino)-6,7,8,9-tetrahydro-5H-benzocyclohepten-2-yl]-pyrimidine-2,4-diamine]

- IC50 [1, 5]: < 100 nM
- IC50 [2, 6]: < 100 nM
Compound: CNC(=O)c1ccccc1Nc1nc(Nc2ccc3c(c2)CN(CCOC(C)=O)CCS3)ncc1Cl [Example 527, Acetic acid 2-{2-[5-Chloro-4-(2-methylcarbamoyl-phenylamino)-pyrimidin-2-ylamino]-6,7-dihydro-9H-5-thia-8-aza-benzoylcyclohepten-8-yl}-ethyl ester]

- IC50 [1, 3]: < 100 nM
- IC50 [2, 4]: < 100 nM
Compound: CNC(=O)c1ccccc1Nc1nc(Nc2ccc3c(c2)N(C)CCCO3)ncc1Cl [Example 1708, 2-[5-Chloro-2-(9-methyl-6,7,8,9-tetrahydro-5-oxa-9-aza-benzocyclohepten-2-ylamino)-pyrimidin-4-ylamino]-N-methyl-benzamide]

- IC50 [1, 3]: 1000 to 10000 nM
- IC50 [2, 4]: > 10000 nM
Compound: COc1ccc2c(c1Nc1ncc(Cl)c(N[C@@H]3CCCC[C@H]3NS(C)(=O)=O)n1)CN(Cc1ccccc1)CC(=O)N2 [Example 1654, N-{(1R,2R)-2-[2-(4-Benzyl-7-methoxy-2-oxo-2,3,4,5-tetrahydro-1H-benzo[e][1,4]diazepin-6-ylamino)-5-chloro-pyrimidin-4-ylamino]-cyclohexyl}-methanesulfonamide]

- IC50 [1, 5]: < 100 nM
- IC50 [2, 6]: < 100 nM
Compound: CNC(=O)c1ccccc1Nc1nc(Nc2ccc3c(c2)CCC(NCC(F)(F)F)CC3)ncc1Cl (stereo not drawn) [Example 651, 2-{5-Chloro-2-[7-(2,2,2-trifluoro-ethylamino)-6,7,8,9-tetrahydro-5H-benzocyclohepten-2-ylamino]-pyrimidin-4-ylamino}-N-methyl-benzamide]

- IC50 [1, 3]: 1000 to 10000 nM
- IC50 [2, 4]: > 10000 nM
Compound: CNC(=O)c1cc(C)cc(C)c1Nc1nc(Nc2ccc3c(c2)CN(C)C(=O)CC3)ncc1Cl [Example 1801, 2-[5-Chloro-2-(2-methyl-3-oxo-2,3,4,5-tetrahydro-1H-benzo[c]azepin-8-ylamino)-pyrimidin-4-ylamino]-3,5,N-trimethyl-benzamide]

- IC50 [1, 3]: < 100 nM
- IC50 [2, 4]: < 100 nM
Compound: CNC(=O)c1cccc(F)c1Nc1nc(Nc2ccc3c(c2)CCN(CCOC)CC3)ncc1Br [Example 1471, 2-{5-Bromo-2-[3-(2-methoxy-ethyl)-2,3,4,5-tetrahydro-1H-benzo[d]azepin-7-ylamino]-pyrimidin-4-ylamino}-3-fluoro-N-methyl-benzamide]

- IC50 [1, 9]: < 100 nM
- IC50 [2, 10]: < 100 nM
Compound: CCN1C(=O)OCCc2ccc(Nc3ncc(Cl)c(Nc4ccsc4C(=O)NC)n3)cc21 [Example 1883, 3-[5-Chloro-2-(5-ethyl-6-oxo-5,6,8,9-tetrahydro-7-oxa-5-aza-benzocyclohepten-3-ylamino)-pyrimidin-4-ylamino]-thiophene-2-carboxylic acid methylamide]

- IC50 [1, 9]: < 100 nM
- IC50 [2, 10]: 100 to 1000 nM
Compound: CNC(=O)c1ccccc1Nc1nc(Nc2ccc3c(c2)C2CC3CN(CCOC)C2)ncc1Cl (stereo not drawn) [Example 161, 2-{5-Chloro-2-[10-(2-methoxy-ethyl)-10-aza-tricyclo[6.3.1.0*2,7*]dodeca-2,4,6-trien-4-ylamino]-pyrimidin-4-ylamino}-N-methyl-benzamide]

- IC50 [1, 3]: < 100 nM
- IC50 [2, 4]: > 10000 nM
Compound: CC(C)N1CCCC(C)(C)c2ccc(Nc3ncc(Cl)c(N[C@H]4[C@@H](C(N)=O)[C@@H]5C=C[C@H]4C5)n3)cc21 [Example 1628, (1S,2S,3R,4R)-3-[5-Chloro-2-(1-isopropyl-5,5-dimethyl-2,3,4,5-tetrahydro-1H-benzo[b]azepin-8-ylamino)-pyrimidin-4-ylamino]-bicyclo[2.2.1]hept-5-ene-2-carboxylic acid amide]

More lines, now with the values behind:

Compound: COc1cc2c(cc1Nc1ncc(Cl)c(N[C@@H]3CCCC[C@H]3NS(C)(=O)=O)n1)CCOC(=O)N2C [Example 1503, N-{(1R,2R)-2-[5-Chloro-2-(3-methoxy-5-methyl-6-oxo-5,6,8,9-tetrahydro-7-oxa-5-aza-benzocyclohepten-2-ylamino)-pyrimidin-4-ylamino]-cyclohexyl}-methanesulfonamide]
- IC50 [1, 3]: < 100 nM
- IC50 [2, 4]: > 10000 nM

Compound: CNC(=O)c1ccccc1Nc1nc(Nc2ccc3c(c2)CNC(=O)CCN3C(C)=O)ncc1Cl [Example 1305, 2-[2-(1-Acetyl-4-oxo-1,2,3,4,5,6-hexahydro-benzo[b][1,5]diazocin-8-ylamino)-5-chloro-pyrimidin-4-ylamino]-N-methyl-benzamide]
- IC50 [1, 7]: < 100 nM
- IC50 [2, 8]: < 100 nM

Compound: COc1cc2c(cc1Nc1ncc(Cl)c(Nc3ccccc3S(=O)(=O)N(C)C)n1)CCN(CC(=O)N1CCC1)CC2 [Example 1201, 2-{2-[3-(2-Azetidin-1-yl-2-oxo-ethyl)-8-methoxy-2,3,4,5-tetrahydro-1H-benzo[d]azepin-7-ylamino]-5-chloro-pyrimidin-4-ylamino}-N,N-dimethyl-benzenesulfonamide]
- IC50 [1, 7]: < 100 nM
- IC50 [2, 8]: > 10000 nM

Compound: C#CCNC(=O)c1cccc(F)c1Nc1nc(Nc2ccc3c(c2)OCCCN3C(=O)OC(C)C)ncc1Cl [Example 1433, 3-[5-Chloro-4-(2-fluoro-6-prop-2-ynylcarbamoyl-phenylamino)-pyrimidin-2-ylamino]-7,8-dihydro-6H-5-oxa-9-aza-benzocycloheptene-9-carboxylic acid isopropyl ester]
- IC50 [1, 7]: 100 to 1000 nM
- IC50 [2, 8]: 100 to 1000 nM

Compound: CCN1CCc2ccc(Nc3ncc(C)c(Nc4ccccc4C(=O)NC)n3)cc2CC1 [Example 191, 2-[2-(3-Ethyl-2,3,4,5-tetrahydro-1H-benzo[d]azepin-7-ylamino)-5-methyl-pyrimidin-4-ylamino]-N-methyl-benzamide]
- IC50 [1, 9]: < 100 nM
- IC50 [2, 10]: < 100 nM

Compound: CCN1CCc2ccc(Nc3ncc(C#N)c(Nc4ccccc4C(=O)NC)n3)cc2CC1 [Example 194, 2-[2-(3-Ethyl-2,3,4,5-tetrahydro-1H-benzo[d]azepin-7-ylamino)-5-cyano-pyrimidin-4-ylamino]-N-methyl-benzamide]
- IC50 [1, 9]: < 100 nM
- IC50 [2, 10]: 100 to 1000 nM

Compound: COc1cc2c(cc1Nc1ncc(Cl)c(N[C@@H]3CCCC[C@H]3NS(C)(=O)=O)n1)NC(=O)CN(C(C)=O)C2 [Example 1657, N-{(1R,2R)-2-[2-(4-Acetyl-7-methoxy-2-oxo-2,3,4,5-tetrahydro-1H-benzo[e][1,4]di-azepin-8-ylamino)-5-chloro-pyrimidin-4-ylamino]-cyclohexyl}-methanesulfonamide]
- IC50 [1, 3]: < 100 nM
- IC50 [2, 4]: > 10000 nM

Compound: COCC(COC)N1CCc2cc(Nc3ncc(Cl)c(Nc4ccccc4S(=O)(=O)N(C)C)n3)c(OC)cc2CC1 [Example 818, 2-{5-Chloro-2-[8-methoxy-3-(2-methoxy-1-methoxymethyl-ethyl)-2,3,4,5-tetrahydro-1H-benzo[d]azepin-7-ylamino]-pyrimidin-4-ylamino}-N,N-dimethyl-benzenesulfonamide]
- IC50 [1, 5]: < 100 nM
- IC50 [2, 6]: > 10000 nM

Compound: CCN1C(=O)CCC(C)(C)c2cc(Nc3ncc(Cl)c(Nc4ccc(N5CCOCC5)cc4OC)n3)ccc21 [Example 391, 7-[5-Chloro-4-(2-methoxy-4-morpholin-4-yl-phenylamino)-pyrimidin-2-ylamino]-1-ethyl-5,5-dimethyl-1,3,4,5-tetrahydro-benzo[b]azepin-2-one]
- IC50 [1, 9]: < 100 nM
- IC50 [2, 10]: > 10000 nM

Compound: CNC(=O)c1ccccc1Nc1nc(Nc2ccc3c(c2)CNCCS3)ncc1Cl [Example 516, 2-[5-Chloro-2-(6,7,8,9-tetrahydro-5-thia-aza-benzocyclohepten-2-ylamino)-pyrimidin-4-ylamino]-N-methyl-benzamide]
- IC50 [1, 5]: < 100 nM
- IC50 [2, 6]: < 100 nM

Compound: CNC(=O)c1cccc(F)c1Nc1nc(Nc2ccc3c(c2)NC(=O)CCO3)ncc1Cl [Example 1221, 2-[5-Chloro-2-(8-oxo-6,7,8,9-tetrahydro-5-oxa-9-aza-benzocyclohepten-2-ylamino)-pyrimidin-4-ylamino]-3-fluoro-N-methyl-benzamide]
- IC50 [1, 7]: 100 to 1000 nM
- IC50 [2, 8]: < 100 nM

Compound: CNC(=O)c1cc(-c2cnn(C)c2)cc(F)c1Nc1nc(Nc2ccc3c(c2)CCN(CCOC)CC3)ncc1Cl [Example 1423, 2-{5-Chloro-2-[3-(2-methoxy-ethyl)-2,3,4,5-tetrahydro-1H-benzo[d]azepin-7-ylamino]-pyrimidin-4-ylamino}-3-fluoro-N-methyl-5-(1-methyl-1H-pyrazol-4-yl)-benzamide]
- IC50 [1, 7]: < 100 nM
- IC50 [2, 8]: < 100 nM

Compound: COc1cc(N2CCOCC2)ccc1Nc1nc(Nc2ccc3c(c2)CCC(F)(F)CC3)ncc1Cl [Example 182, 5-Chloro-N*2*-(7,7-difluoro-6,7,8,9-tetrahydro-5H-benzocyclohepten-2-yl)-N*4*-(2-methoxy-4-morpholin-4-yl-phenyl)-pyrimidine-2,4-diamine]
- IC50 [1, 9]: 100 to 1000 nM
- IC50 [2, 10]: > 10000 nM
